{"source": "patent US20220243177A1", "about": "“METHODS OF CULTURING QUIESCENT HEMATOPOIETIC STEM CELLS AND TREATMENT METHODS” (priority 2019, published 2022)", "format_in_all_cases": "cell-based, mouse", "key": {"[1]": {"tested_on": "MMP-low and MMP-high HSCs", "test": "Glucose uptake assay (2NBDG)", "conditions": "ConA (25 nM, 50 nM), 18 hours", "description": "Glucose Uptake Assay: For measurement of glucose uptake, freshly FACS-purified MMP-low and MMP-high HSCs (at least 2,000 cells pooled in average from 8 mice) were cultured immediately in […] of glucose, glutamine, pyruvate free medium containing 100 or 200 μM 2-(n-(7-nitrobenz-2-oxa-1,3-diazol-4-yl amino)-2-deoxyglucose (2-NBD-Glucose, 2NBDG) for 2 hours. Cells were then washed multiple times in PBS, re-suspended in PBS containing 1 μg/ml DAPI, and analyzed by flow cytometry for 2-NBD glucose fluorescence in the FITC channel. In some experiments cells were cultured in StemSpan medium (StemCell Technology) supplemented with SCF (100 ng/ml) and TPO (20 ng/ml), treated with or without STF-31 ([…]), ConA (25, 50 nM), dimethyl alpha ketoglutarate (MOG, 1 mM), methyl pyruvate (MP, 1 mM) or DMSO, incubated at 37° C. in a humidified atmosphere with 5% CO2 for 6 or 18 hours before removing culture medium from each well, washing extensively and adding […] of glucose, glutamine, pyruvate free medium containing […] of 2 NBDG for 2 hours before washing cells multiple times in PBS and analyzing by flow cytometry. Quantification of 2NBDG uptake was measured by the geometric mean fluorescence intensity (“MFI”) as well as % of 2NBDG^+ cells."}, "[2]": {"tested_on": "bone marrow lineage-negative cells", "test": "Lineage negative bone marrow cell culture, HSC frequency and MMP", "conditions": "ConA 100 nM", "description": "For measuring MMP and proliferation, lineage negative bone marrow (BM) cells were enriched with the EasySep Mouse hemato- poietic progenitor kit. Lineage negative (1 3 106) cells (isolated separately from four mice) were seeded onto 6 well plates in Stem-Span medium containing SCF (100 ng/ml) and TPO (20 ng/ml). Cells were treated with ConA (100nM) or the DMSO control and analyzed at 0, 6, 12 and 24 hour-time points by flow cytometry for HSC (LSKCD150+CD48−) frequencies or MMP-low and MMP- high HSCs frequencies or MMP (TMRE)."}, "[3]": {"tested_on": "MMP-low and MMP-high HSCs", "test": "Immunofluorescence staining and laser scanning confocal microscopy of treated HSCs", "conditions": "ConA 40 nM, 18 hours", "description": "Immunofluorescence Staining, Imaging, and Analysis—Laser Scanning Confocal Microscopy: FACS purified MMP-low and MMP-high HSCs (in average pooled from three mice) were seeded into retronectin-coated channel slides (Ibidi Cat# 80626) and fixed for 15 minutes with 10% formalin (1,000 cells). After washing with PBS, cells were permeabilized in PBS+0.25% Triton™ X-100 for 15 minutes and blocked for 1 hour in 3% BSA. Fixed and permeabilized cells were then incubated with primary antibodies (1:150) in PBS+1% BSA overnight at 4° C., washed and stained with fluorescence-conjugated secondary antibodies (1:1,000) for 1 hour at room temperature. Slides were sealed with mounting medium with DAPI. Images were captured using a Zeiss LSM880 Airyscan confocal microscope using a 100× objective (N.A. 1.46).\nFor analysis by immunofluorescence staining, MMP-low and MMP-high HSCs were FACS-purified and incubated in StemSpan medium containing SCF (100 ng/ml) and TPO (20 ng/ml) for the indicated time with the indicated compounds at 37° C. in a humidified atmosphere with 5% CO2. After treatment, cells were processed for confocal imaging as described above.\nFluorescence Intensity: Channel displaying the protein of interest were isolated and quantified on a per cell basis using the raw integrated density metric generated by the measure command. For nuclear intensity, DAPI thresholds were used to delimit the nucleus and mapped back onto the channel displaying the protein of interest to determine fluorescence intensity within the nucleus only."}, "[4]": {"tested_on": "MMP-low and MMP-high HSCs", "test": "Lysosome acidity (LysoTracker green, LysoSensor blue)", "conditions": "ConA 40 nM, 5 hours", "description": "To test lysosome acidity in MMP-low and MMP-high HSCs, FACS-sorted MMP-low and MMP-high HSCs were incubated in Stem-Span media with SCF (10 ng/mL) and TPO (20 ng/mL) or amino acid free medium (starvation) containing ConA (40 nM) or DMSO control for 5 hr; and then cells were incubated with […] Lysotracker green (LTR) or 1mM Lysosensor Blue diluted in above medium for 30 min (37° C., 5% CO2). Cells were rapidly washed with warm PBS (37° C.) three times, mounted and images were captured using a Zeiss LSM880 confocal microscope using a 40× objective (N.A. 1.4)."}, "[5]": {"conditions": "aging MMP-low and MMP-high HSCs"}}}
{"smiles": "C/C=C/[C@H]1O[C@@](O)([C@@H](C)[C@H](O)[C@H](C)[C@H]2OC(=O)/C(OC)=C/C(C)=C/[C@@H](C)[C@@H](O)[C@@H](CC)[C@@H](O)[C@H](C)C/C(C)=C/C=C/[C@@H]2OC)C[C@@H](O[C@H]2C[C@@H](O)[C@H](OC(N)=O)[C@@H](C)O2)[C@@H]1C", "note": "[ConA, concanamycin A]", "values": [{"measurement": "decrease of glucose uptake in MMP-high HSCs", "setting": "[1]", "result": 19, "unit": "fold"}, {"measurement": "effect on reducing the viability under the glucose uptake condition", "setting": "[1]", "result": "mostly restricted to MMP-high and subtle in MMP-low HSCs"}, {"measurement": "MMP in recovered cells", "setting": "[2]; 12-24 hours", "result": "relative decrease of MMP"}, {"measurement": "frequency of HSCs recovered from 24-hour in vitro culture", "setting": "[2]; 24 hours", "result": "improved frequency"}, {"measurement": "retention of the MMP-low HSC fraction", "setting": "[2]; twenty-four-hour", "result": "greater retention"}, {"measurement": "lysosomal phenotype (LAMP2)", "setting": "[3]", "result": "bloated lysosomal phenotype"}, {"measurement": "mTOR co-localization with lysosomes in MMP-high HSCs", "setting": "[3]", "result": "lost"}, {"measurement": "expression of Ki67 and CDK6", "setting": "[3]; MMP-high HSCs", "result": "restored in ConA-treated MMP-high HSCs to the levels of the untreated MMP-low HSCs"}, {"measurement": "mTOR signaling (mTOR, RHEB, RAGA/B, p4EBP1) in MMP-high HSCs", "setting": "[3]; almost to levels of rapamycin (40 nM)-treated HSCs", "result": "repression of mTOR signaling"}, {"measurement": "mTOR activity in old HSCs", "setting": "[3]; aging HSCs", "result": "reduced/abolished mTOR activity"}, {"measurement": "cycling status (CDK6 staining) of aging HSCs", "setting": "[3]; [5]", "result": "reverted the cycling status"}, {"measurement": "lysosomal content in old HSCs", "setting": "[3]; [5]", "result": "increasing lysosomal content"}, {"measurement": "lysosomal acidity", "setting": "[4]", "result": "reduced"}]}
